Data set [1] relates to MDA. Description: MDA content in HT1080 cells. In kind it is cell-based, human. Particulars: HT1080 cells, 0.1, 0.5 and 1 µM, 24 h. The method, then:
HT1080 cells were seeded into 10‐cm diameter culture dishes at a density of 2 × 10⁶ cells overnight and then exposed to GDAz‐3 (0.1, 0.5, and 1 µM). The cells were cultured for another 24 h, and the culture medium was discarded, washed with PBS, and lysed using IP lysis buffer (Servicebio, G2038). After lysis, the samples were centrifuged at 12 000 × g for 15 min at 4 °C. The supernatant was collected, and the MDA content was determined according to the instructions of the Lipid Peroxidation MDA Assay Kit (Beyotime Biotechnology, S00131S).

Data set [2] relates to Fe2+. Briefly: Intracellular Fe2+ in HT1080 cells. In kind it is cell-based, human. Conditions: HT1080 cells, 0.1, 0.5 and 1 µM, 24 h. The method, then: HT1080 cells were seeded into 10‐cm culture dishes at a density of 2 × 10⁶ cells overnight, and various concentrations of GDAz‐3 (0.1, 0.5, and 1 µM) were added. The cells were digested and collected after treatment with drugs for 24 h. The cells were detected according to the instructions of the Cell Ferrous Iron (Fe^2⁺) Fluorometric Assay Kit (E‐BC‐F101, Elabscience Biotechnology Co., Ltd.). In brief, the cells were washed twice with Reagent 1 working solution in the kit, and then Reagent 2 working solution was added (1 mL per 10⁶ cells). The cells were incubated at 37 °C in the dark for 30–60 min. The samples were centrifuged at 300 × g for 5 min, and the supernatant was discarded. The cells were washed two to three times with Reagent 1 working solution. After resuspending the cells in 0.2–0.5 mL of Reagent 1 working solution, the samples were detected using a fluorescence microplate reader (excitation wavelength: 542 nm, emission wavelength: 575 nm).

The target in data set [3] is T1, GPX4 (Homo sapiens, UniProt P36969).
T1 sequence (P36969 1-170 isoform P36969-2): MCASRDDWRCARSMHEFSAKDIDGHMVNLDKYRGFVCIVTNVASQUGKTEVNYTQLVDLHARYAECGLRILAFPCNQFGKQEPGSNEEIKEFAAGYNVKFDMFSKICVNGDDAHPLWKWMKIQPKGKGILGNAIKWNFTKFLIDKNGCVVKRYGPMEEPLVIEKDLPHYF
Description: GPX4 degradation by western blot in 786-O cells. In kind it is cell-based. Also noted: endogenous in cells; host or cells: 786-O. Particulars: 24 h. The source says:
As previously mentioned, drug resistance and limited application scope are the significant challenges of traditional PROTAC, due partly to CRBN/VHL mutations or low expression. In this study, we investigated whether the developed HSP70‐PROTAC could address these challenges. Specifically, we examined the developed HSP70‐PROTAC in scenarios where VHL‐ or CRBN‐based PROTACs are ineffective due to intrinsic or acquired resistance. Several previously reported representative GPX4‐targeting degraders, including dGPX4 (CRBN‐based PROTAC, Figure 1A), 8e (VHL‐based PROTAC, Figure 1B), and GDCNF‐11/2 (HSP90‐based HIM‐PROTAC, Figure 1C, the structure of the GDCNF‐11 derivative GDCNF‐2 was not shown) were selected as control agents.^[ [18], [23], [28] ^] […] The clear cell renal cell carcinoma (ccRCC) 786‐O cell line is a well‐established cancer cell model characterized by an intrinsic deficiency in VHL expression.^[ [43], [44], [45] ^] We also confirmed this characteristic through evaluating the VHL expression levels in several randomly selected cancer cell lines (Figure S10A, Supporting Information). We further selected 786‐O cells as a model to confirm whether HSP70‐PROTAC could be used in such cases as an alternative to VHL‐based degraders, because VHL‐based PROTACs cannot be used to treat kidney cancer with a mutation or deletion in the VHL gene.
Cells were seeded at a density of 4 × 10^5 cells well^−1 in 6‐well plates and allowed to incubate overnight. Cells were incubated with the indicated treatments. Thereafter, the cells were collected and lysed with RIPA buffer containing serine protease and phosphatase inhibitors for 30 min on ice. Proteins were quantified by using a BCA protein assay kit (Beyotime). Subsequently, SDS‐PAGE sample loading buffer was added, and the mixture was heated in a 100 °C metal bath for 10 min to denature the proteins. Protein samples from each group were separated by SDS‐PAGE gel and transferred to a PVDF membrane. After blocking with 5% skim milk for 1 h at room temperature, primary antibodies (GPX4: abcam (#ab125066, 1:1000); Hsp70: abcam (#ab2787, 1:1000); CHIP: HUABIO (#ST7108, 1:1000); UpingBio Technology Co., Ltd. (BRD4, #YP‐Ab‐18034, 1:1000; BAG‐1, #YP‐Ab‐00575, 1:1000); GAPDH: Proteintech (#60004‐1‐Ig, 1:50 000)) were used and incubated at 4 °C overnight on a rotary shaker. After washing the membranes with TBST buffer five times, the membranes were incubated with a second antibody (Cell Signaling Technology, #7074S, 1:1000 and #7076S, 1:1000) at room temperature for 2 h. Ultimately, the membrane was washed five times, and the antibody‐protein complexes were visualized using an ECL luminescence reagent (Biosharp, Shanghai, China). The relative intensities of the bands were analyzed by ImageJ and normalized to a loading control.
(In general: In western blotting, separated proteins are transferred to a membrane and probed.)

Data set [4] can be described thus: Pharmacokinetic study in ICR mice. Type of data set: in vivo. Particulars: mouse; male ICR mice, IP, 30 mg/kg, plasma. The method, then:
To evaluate the in vivo pharmacokinetic (PK) profile of the GDAz‐3 and explore its therapeutic potential, a single intraperitoneal (IP) injection (30 mg kg^−1) was conducted in male ICR mice. Plasma samples were collected at predetermined time points and analyzed using LC‐MS/MS.
The tested compound GDAz‐3 was IP administered to ICR mice (male, n = 3 per time‐point). Blood samples were collected at 0.0833, 0.25, 0.5, 1, 2, 4, 8, and 24 h after IP administration (30 mg kg^−1) and then centrifuged at 6800 g for 6 min at 4 °C to obtain plasma, which were stored at −80 °C until analysis The compound concentrations in plasma were determined by liquid chromatography‐tandem mass spectrometry (API5000 LC‐MS/MS).

The structures appear in SMILES notation.

The AUC(0-inf) is the area under the concentration-time curve extrapolated to infinity. Higher therefore signals high exposure. A word on the AUC(0-t): it is the area under the concentration-time curve up to a stated or last time point. As usually defined, the Cmax is the highest concentration seen after dosing. One may read the MRT inf as a mean duration of stay, worked out from the concentration-time curve. Usually Tmax stands for the time at which the peak concentration occurs. For orientation: half-life means the time in which the quantity being followed falls by half.

For `COc1ccc(-c2nc(-c3cc(C(F)(F)F)cc(C(F)(F)F)c3)n(Cc3ccc(C(=O)NCCOCCOCCOCCn4cc(COc5ccc(N(C(=O)CCl)C(C(=O)NCCc6ccccc6)c6cccs6)cc5Cl)nn4)cc3)c2-c2ccc(OC)cc2)cc1` (stereo not drawn) [GDAz-3, 4-((2-(3,5-bis(trifluoromethyl)phenyl)-4,5-bis(4-methoxyphenyl)-1H-imidazol-1-yl)methyl)-N-(2-(2-(2-(2-(4-((2-chloro-4-(2-chloro-N-(2-oxo-2-(phenethylamino)-1-(thiophen-2-yl)ethyl)acetamido)phenoxy)methyl)-1H-1,2,3-triazol-1-yl)ethoxy)ethoxy)ethoxy)ethyl)benzamide], the “Content of MDA” value in data set [1] is given as “increased”. Moreover, the “Content of Fe2+” value in data set [2] was “increased”. In addition, the “GPX4 degradation in 786-O cells” value in data set [3] (0.5 µM) is “obvious GPX4 degradation”. Moreover, the remaining activity at 0.1 µM in data set [3] (786-0, 786-O cell line, 0.1 µM, read-out: GPX4 % of control) worked out at 89%. Besides, the remaining activity at 0.5 µM in data set [3] (786-0, 786-O cell line, 0.5 µM, read-out: GPX4 % of control) came to 54%. In addition, in data set [3] (786-0, 786-O cell line, 1 µM, read-out: GPX4 % of control), the remaining activity at 1 µM was found to be 33%. Further, in data set [4], the AUC(0-inf) was 3140 ng·h/mL, the AUC(0-t) came out at 2450 ± 939 ng·h/mL, the peak level (Cmax) was 201 ng/mL and the MRT inf stood at 15.5 ± 1.31 h. In data set [4], the Tmax was found to be 4 h and the half-life was 10.2 h.

Values taken from paper PMC12948223, “HSP70 Interactome‐Mediated Proteolysis Targeting Chimera (HSP70‐PROTAC) for Ferroptosis‐Driven Cancer Treatment” (Advanced Science, 2025).
